Test results published in patent US11304949B2, “Treatment of hidradenitis suppurativa using JAK inhibitors” (Incyte Corporation, priority 2018, dated 2022).

Columns and labels:
[1] = biological target: human JAK1 (a.a. 837-1142) (Homo sapiens, UniProt P23458); test: In vitro JAK kinase assay (HTRF), JAK1; assay type: biochemical; conditions: 1 mM ATP
[2] = test system: human JAK1 (a.a. 837-1142); test: In vitro JAK kinase assay (HTRF), JAK1; assay type: biochemical; conditions: IC50 ratio at 1 mM ATP

| IC50 [1] | JAK2/JAK1 [2] | SMILES |
| --- | --- | --- |
| < 10 nM | >10 | CC(C)(O)c1cc(O[C@H]2CC[C@@H](N3CC(CC#N)(n4cc(-c5ncnc6[nH]ccc56)cn4)C3)CC2)nc(C(F)(F)F)c1 [Compound 20, {1-(cis-4-{[4-(1-hydroxy-1-methylethyl)-6-(trifluoromethyl)pyridin-2-yl]oxy}cyclohexyl)-3-[4-(7H-pyrrolo[2,3-d]pyrimidin-4-yl)-1H-pyrazol-1-yl]azetidin-3-yl}acetonitrile] |
| < 10 nM | >10 | N#CCC1(n2cc(-c3ncnc4[nH]ccc34)cn2)CN([C@H]2CC[C@@H](Oc3cc(CN4CC[C@@H](O)C4)cc(C(F)(F)F)n3)CC2)C1 [Compound 21, {1-(cis-4-{[4-{[(3R)-3-hydroxypyrrolidin-1-yl]methyl}-6-(trifluoromethyl)pyridin-2-yl]oxy}cyclohexyl)-3-[4-(7H-pyrrolo[2,3-d]pyrimidin-4-yl)-1H-pyrazol-1-yl]azetidin-3-yl}acetonitrile] |
| < 10 nM | >10 | N#CCC1(n2cc(-c3ncnc4[nH]ccc34)cn2)CN([C@H]2CC[C@@H](Oc3cc(CN4CC[C@H](O)C4)cc(C(F)(F)F)n3)CC2)C1 [Compound 22, {1-(cis-4-{[4-{[(3S)-3-hydroxypyrrolidin-1-yl]methyl}-6-(trifluoromethyl)pyridin-2-yl]oxy}cyclohexyl)-3-[4-(7H-pyrrolo[2,3-d]pyrimidin-4-yl)-1H-pyrazol-1-yl]azetidin-3-yl}acetonitrile] |
| < 10 nM | >10 | C[C@@H](CO)NCc1cc(OC2CCN([C@H]3C[C@](CC#N)(n4cc(-c5ncnc6[nH]ccc56)cn4)C3)CC2)nc(C(F)(F)F)c1 [Compound 23, {trans-3-(4-{[4-({[(1S)-2-hydroxy-1-methylethyl]amino}methyl)-6-(trifluoromethyl)pyridin-2-yl]oxy}piperidin-1-yl)-1-[4-(7H-pyrrolo[2,3-d]pyrimidin-4-yl)-1H-pyrazol-1-yl]cyclobutyl}acetonitrile] |
| < 10 nM | >10 | C[C@@H](O)CNCc1cc(OC2CCN([C@H]3C[C@](CC#N)(n4cc(-c5ncnc6[nH]ccc56)cn4)C3)CC2)nc(C(F)(F)F)c1 [Compound 24, {trans-3-(4-{[4-({[(2R)-2-hydroxypropyl]amino}methyl)-6-(trifluoromethyl)pyridin-2-yl]oxy}piperidin-1-yl)-1-[4-(7H-pyrrolo[2,3-d]pyrimidin-4-yl)-1H-pyrazol-1-yl]cyclobutyl}acetonitrile] |
| < 10 nM | >10 | C[C@H](O)CNCc1cc(OC2CCN([C@H]3C[C@](CC#N)(n4cc(-c5ncnc6[nH]ccc56)cn4)C3)CC2)nc(C(F)(F)F)c1 [Compound 25, {trans-3-(4-{[4-({[(2S)-2-hydroxypropyl]amino}methyl)-6-(trifluoromethyl)pyridin-2-yl]oxy}piperidin-1-yl)-1-[4-(7H-pyrrolo[2,3-d]pyrimidin-4-yl)-1H-pyrazol-1-yl]cyclobutyl}acetonitrile] |
| < 10 nM | >10 | N#CC[C@]1(n2cc(-c3ncnc4[nH]ccc34)cn2)C[C@H](N2CCC(Oc3cc(CCO)cc(C(F)(F)F)n3)CC2)C1 [Compound 26, {trans-3-(4-{[4-(2-hydroxyethyl)-6-(trifluoromethyl)pyridin-2-yl]oxy}piperidin-1-yl)-1-[4-(7H-pyrrolo[2,3-d]pyrimidin-4-yl)-1H-pyrazol-1-yl]cyclobutyl}acetonitrile] |
